Test results taken from US10544130B2, “Metallo-beta-lactamase inhibitors” (priority 2015, dated 2020).
≈ marks a conversion by molar mass, not a printed value.

Columns and labels:
[1] = system: Pseudomonas aeruginosa MB 5919; assay: Minimum inhibitory concentrations of sentinel antibiotics (strain quality control); type: cell-based; settings: OprD+, efflux+, parental strain
[2] = system: Pseudomonas aeruginosa MB 5890; assay: as above; type: cell-based; settings: OprD+, efflux−, parental strain
[3] = system: MB 5919 Trans IMP1 plasmid (MB 9798); type: cell-based, Pseudomonas aeruginosa; settings: OprD+, efflux+
[4] = system: MB 5890 Trans IMP1 plasmid (MB 9799); type: cell-based, Pseudomonas aeruginosa; settings: OprD+, efflux−
[5] = system: MB 5919 Trans pFlp-Vim1 plasmid (MB 9861); type: cell-based, Pseudomonas aeruginosa; settings: OprD+, efflux+
[6] = system: MB 5890 Trans pFlp-Vim1 (MB9862); type: cell-based, Pseudomonas aeruginosa; settings: OprD+, efflux−
[7] = system: MB 5919 Trans pFlp-Vim2 plasmid; type: cell-based, Pseudomonas aeruginosa; settings: OprD+, efflux+
[8] = system: MB 5890 Trans pFlp-Vim2 plasmid; type: cell-based, Pseudomonas aeruginosa; settings: OprD+, efflux−

Row | SMILES | MIC [1] [µg/mL] | MIC [2] [µg/mL] | MIC [3] [µg/mL] | MIC [4] [µg/mL] | MIC [5] [µg/mL] | MIC [6] [µg/mL] | MIC [7] [µg/mL] | MIC [8] [µg/mL]
1 | C[C@@H](O)[C@H]1C(=O)N2C(C(=O)O)=C(SCCN=CN)C[C@H]12 [Imipenem, imipenem] | 4 (≈ 13.4 µM) | 2 (≈ 6.68 µM) | 64 (≈ 214 µM) | 32 (≈ 107 µM) | >64 | 64 (≈ 214 µM) | >64 | 32 (≈ 107 µM)
2 | C[C@@H](O)[C@H]1C(=O)N2C(C(=O)O)=C(S[C@@H]3CN[C@H](C(=O)N(C)C)C3)[C@H](C)[C@H]12 [Meropenem, meropenem] | 2 (≈ 5.22 µM) | 0.5 (≈ 1.3 µM) | >64 | 64 (≈ 167 µM) | >64 | 64 (≈ 167 µM) | >64 | 32 (≈ 83.4 µM)
